Reference: US8642837B2, “Method to increase pathogen resistance in plants” (Expressive Research B.V., priority 2004, dated 2014)

System: callose deposition
Experiment: Callose deposition in plants tested with Peronospora parasitica
Format: in vivo, Arabidopsis
Conditions: treatment with BABA, positive control

CC(N)CC(=O)O (stereo not drawn) [BABA, β-aminobutyric acid]
callose deposition: increased
